Reference: patent US20250129081A1, “METHANOGEN INHIBITORS” (PASTORAL GREENHOUSE GAS RESEARCH LIMITED, priority 2021, published 2025)

Test system: rumen fluid
Assay: Rumen in vitro (RIV) assay: methane production from incubated rumen fluid
Format: cell-based, cattle
Details: for RIV % methane reduction: 60 mL rumen fluid-buffer mixture
Experimental: The compounds of the present invention were initially screened for activity using an in vitro fully automated incubation system for the measurement of total gas production and gas composition (methane and hydrogen). The system used is described in detail in the paper by Muetzel et al. (2014; Animal Feed Science and Technology 196, 1-11). The system in this specification is referred to as the rumen in vitro system or RIV. The RIV system provides a relatively simple tool for determining the rate and production of methane and also whether the rate and production of methane is inhibited or reduced by a particular compound or feed. Rumen in vitro assays use rumen fluid from donor animals (typically either sheep or cattle) which is typically combined with a buffer and then incubated in sealed fermentation vessels at 39° C. for either 24 or 48 h. These assays systems have been well-characterised and used by the scientific community over the last two decades (Rymer et al. 2005). The system that has been used here to characterise the effects of inhibitors on methane production and gas production, and the formation of H2, was described by Muetzel et al. (2014). Rumen in vitro assay systems reflect what can occur in the rumen in vivo, but only short-term, due to their short incubation times (typically not exceeding 48 h) which is limited by its buffering capacity and the fact that it is a closed system. Stock solutions of inhibitors were re-suspended in dimethylformamide (DMF) at concentrations 1000-fold higher than the highest used for the assays. Any further dilutions were also prepared using DMF. The total amount of inhibitor solution added to the rumen fluid-buffer mixture (60 mL) was 60 μl. Incubations used 60 ml of medium containing 12 ml of filtered rumen fluid and 48 ml of buffer in serum bottles for 24-48 h, essentially as described by Muetzel et al. (2014). Two fistulated cattle were used as donor animals for rumen fluid and treatments were incubated in duplicate bottles. Sets of duplicate incubation vials that contained ryegrass (with rumen fluid-buffer mixture), and ryegrass with 30 μM bromoethanesulfonate (BES) were also incubated as negative and positive controls, respectively. One experiment consists of 2 replicates of an inhibitor at any one concentration run at the same time, and a run can contain up to 32 bottle, including positive (30 µM BES) and negative (no inhibitor added) controls. Compound 1, for example, was tested using the 60 mL rumen in vitro assay system at 30 μM, 10 μM, 2 μM and 1 μM final concentrations and compared to a positive control with 30 μM BES. […] Compound 3 was very active in the RIV and only the lower concentrations of 2 μM and 1 μM were measured.

Row | Compound | RIV % methane reduction (1 μM compound) | RIV % methane reduction (2 μM compound) | RIV % methane reduction (10 μM compound) | RIV % methane reduction (30 μM compound) | inhibition at 2 µM (Bos taurus, 2 μM, at 18 h, 60 mL rumen in vitro assay system, read-out: inhibition level (methane)) | inhibition at 30 µM (Bos taurus, 30 μM, at 18 h, 60 mL rumen in vitro assay system, read-out: inhibition level (methane)) | activity in the RIV (in words) (only 2 μM and 1 μM measured)
1 | O=c1[nH]c(=O)c2cc3c(=O)n(CCOc4no[n+]([O-])c4S(=O)(=O)c4ccccc4)c(=O)c3cc12 [Compound 1, 3-(phenylsulfonyl)-4-(2-(1,3,5,7-tetraoxo-3,5,6,7-tetrahydropyrrolo[3,4-f]isoindol-2(1H)-yl)ethoxy)-1,2,5-oxadiazole 2-oxide] | 8.9% | 23.3% | 67.8% | 87.1% | ~23.3% | ~87.1% | 
2 | O=c1c2cc3c(=O)n(CO[N+](=O)[O-])c(=O)c3cc2c(=O)n1CCOc1no[n+]([O-])c1S(=O)(=O)c1ccccc1 [Compound 2, 4-(2-(6-((nitrooxy)methyl)-1,3,5,7-tetraoxo-3,5,6,7-tetrahydropyrrolo[3,4-f]isoindol-2(1H)-yl)ethoxy)-3-(phenylsulfonyl)-1,2,5-oxadiazole 2-oxide] | 7.2% | 30.6% | 56.1% | 85.9% |  |  | 
3 | Cn1c(=O)c2cc3c(=O)n(CCOc4no[n+]([O-])c4S(=O)(=O)c4ccccc4)c(=O)c3cc2c1=O [Compound 3] | 49.0% | 80.4% |  |  |  |  | very active
